Measurements: patent US7390642B2, “Salutaridinol 7-O-acetyltransferase and derivatives thereof” (priority 2001, dated 2008)
Where two headings read alike, the source gives them in different places.

Columns and labels:
[1] = target: T1, salutaridinol 7-O-acetyltransferase (Papaver somniferum, UniProt Q94FT4)
[2] = target: T1, salutaridinol 7-O-acetyltransferase; test: Inhibition of enzyme activity by covalent modification with diethylpyrocarbonate; assay type: biochemical, P. somniferum; parameters: The full-length cDNA generated by RT-PCR was ligated into pFastBac HTa; His tag (N); made in house; host or cells: Spodoptera frugiperda Sf9 cells (baculovirus, pFastBac HTa); purified from culture medium
Description: Sequence Analysis of pSalAT: Translation of the complete nucleotide sequence of salAT yielded a polypeptide of 474 amino acids containing no apparent signal peptide. This is consistent with the cytosolic localization of the enzyme activity (6). The enzyme activity is also operationally found associated with the cytosolic fraction of exuded latex. The salAT amino acid sequence contains residues conserved in other plant acetyltransferases as indicated by the black boxes in FIG. 2 (SEQ. IDs No.7 to 12). The longest contiguous region of conserved amino acids are the five residues DFGWG near the carboxy terminus that were used for primer design and are indicated by an arrow. Conserved histidine and aspartate residues (HXXXD; denoted by # in FIG. 2) thought to be involved in catalysis as characterized by x-ray crystallography for the bacterial enzymes chloramphenicol acetyltransferase and dihydrolipoamide acetyltransferase are also present in salutaridinol 7-O-acetyltransferase (23,24).

[3] = system: COC1=C[C@]23CCN(C)[C@H](Cc4ccc(OC)c(O)c42)C3=C[C@@H]1O; test: purified protein, by the assay type; details: other: fixed concentration of acetyl CoA of 30 mm; recombinant enzyme
[4] = system: CC(=O)SCCNC(=O)CCNC(=O)[C@H](O)C(C)(C)COP(=O)(O)OP(=O)(O)OC[C@H]1O[C@@H](n2cnc3c(N)ncnc32)[C@H](O)[C@@H]1OP(=O)(O)O; test: purified protein, by the assay type
[5] = standard assay conditions, acetylation of salutaridinol

For COC1=C[C@]23CCN(C)[C@H](Cc4ccc(OC)c(O)c42)C3=C[C@@H]1O [7(R)-salutaridinol], the “acetylation at C-7 by the recombinant enzyme (substrate acceptance)” value (“acetylation” for short) ([1]; recombinant enzyme, acetyl CoA) was “not”.

With CCOC(=O)OC(=O)OCC [DEPC, diethylpyrocarbonate] the “effect of carbethoxylation of histidine residues on enzyme activity” value [2] was “loss of enzyme activity”, the inhibition at 3000 µM ([2]; 3 mM DEPC) was 50% and the inhibition at 5000 µM ([2]; 5 mM DEPC) was 92%. The inactivation of enzyme ([2]; 5 mM DEPC after preincubation of the enzyme with 30 mM acetyl CoA) was 46%.

For [3H]C1(O)C=C2C3Cc4ccc(OC)c(O)c4C2(C=C1OC)CCN3C (centres unmarked) [[7-^3H]salutaridinol], the “conversion into a product that co-migrated during TLC with authentic thebaine standard” value ([1]; radioassay of pure, recombinant enzyme) was 100%.

For CC[C@]12C=CCN3CC[C@@]4(c5ccc(OC)cc5N(C)[C@H]4[C@@](O)(C(=O)OC)[C@@H]1O)[C@@H]32 [deacetylvindoline], the “acetylation” value ([1]; recombinant enzyme, acetyl CoA) was “not”.

In the case of CN1CC[C@]23c4c5ccc(O)c4O[C@H]2[C@@H](O)C=C[C@H]3[C@H]1C5 [morphine], the “acetylation” value [1] is reported as “not”.

COC1=C[C@]23CCN(C)[C@H](Cc4cc5c(cc42)OCO5)C3=C[C@@H]1O [nudaurine] was tested, and the “Vmax (nudaurine)” value ([1]; nudaurine as substrate) was 19 pmol/s, the Km ([1]; read-out: apparent Km nudaurine, at 30 mM acetyl CoA) was 23 µM and the “acetylation” value ([1]; recombinant enzyme, acetyl CoA) was “acetylated”.

COC1=C[C@]23CCN(C)[C@H](Cc4ccc(OC)c(O)c42)C3=CC1=O [salutaridine] was tested, and the “acetylation” value ([1]; recombinant enzyme, acetyl CoA) was “not”.

In the case of COC1=C[C@]23CCN(C)[C@H](Cc4ccc(OC)c(O)c42)C3=C[C@@H]1O [salutaridinol, 7(S)-salutaridinol], the “ratio kcat/Km (salutaridinol):kcat/Km(nudaurine)” value ([1]; preference of salutaridinol over nudaurine, factor) is reported as 3.3 and the “acetylation” value ([1]; recombinant enzyme, acetyl CoA, listed as 7(S)-salutaridinol) is reported as “acetylated”.

Work on “salutaridinol 7-O-acetyltransferase (Papaver somniferum)” yielded a Km [3] of 9 µM, a Vmax [3] of 25 pmol/s and a Km ([4]; other: at 10 mM nudaurine) of 106 µM. It also gave a Km ([4]; other: fixed concentration of salutaridinol of 10 mM, recombinant enzyme) of 54 µM.

B1: recombinant enzyme: P. somniferum salutaridinol 7-O-acetyltransferase, SEQ. ID No. 14, 474 amino acids (protein, listed as Papaver somniferum)
chain: MATMYSAAVEVISKETIKPTTPTPSQLKNFNLSLLDQCFPLYYYVPIILFYPATAANSTGSSNHHDDLDLLKSSLSKTLVHFYPMAGRMIDNILVDCHDQGINFYKVKIRGKMCEFMSQPDVPLSQLLPSEVVSASVPKEALVIVQVNMFDCGGTAICSSVSHKIADAATMSTFIRSWASTTKTSRSGGSTAAVTDQKLIPSFDSASLFPPSERLTSPSGMSEIPFSSTPEDTEDDKTVSKRFVFDFAKITSVREKLQVLMHDNYKSRRQTRVEVVTSLIWKSVMKSTPAGFLPVVHHAVNLRKKMDPPLQDVSFGNLSVTVSAFLPATTTTTTNAVNKTINSTSSESQVVLHELHDFIAQMRSEIDKVKGDKGSLEKVIQNFASGHDASIKKINDVEVINFWISSWCRMGLYEIDFGWGKPIWVTVDPNIKPNKNCFFMNDTKCGEGIEVWASFLEDDMAKFELHLSEILELI
For B1, the pH optimal range [1, 5] was 7-9 and the temperature optimum [1, 5] was 47 °C.
